Reference: publication PMC4764201, “High Throughput Screen for Escherichia coli Twin Arginine Translocation (Tat) Inhibitors” (PLoS ONE, 2016)

Test system: E. coli MC4100(DE3)
Test: Cell growth (optical density A500) under Tat++ conditions
Type: cell-based, Escherichia coli
Conditions: Tat++ conditions, concentration-dependent, 8 h 25°C
Method: Fig 4 Effect of Oxidative Phosphorylation Inhibitors on In Vivo Tat Transport and Sensitivity of Fluorescence Detection on Plates. (A) Effect of oxidative phosphorylation inhibitors on cell growth and mCherry fluorescence under Tat^++ conditions. Cells producing spTorA-mCherry-SsrA under Tat^++ conditions were grown at 25°C for 8 h in the presence of the indicated respiratory inhibitors. After overnight incubation at 4°C, optical densities (upper panel; A500) and total mCherry cellular fluorescence intensities (lower panel; EX = 587 nm, EM = 610 nm) were measured (n = 3). Nigericin (N; 50 μM) is a H^+/K^+ exchanger, which collapses the ΔpH gradient. Valinomycin (V; 50 μM) is a K^+ ionophore, which collapses the Δψ. NaSCN (SCN; 50 mM) collapses the Δψ. NaN3 (N3; 0.1%) inhibits the cytochrome bo3 terminal oxidase. (B) Effect of NaSCN concentration on cell density and total mCherry cellular fluorescence. Measurements were made after incubating cells overnight at 4°C (n = 3). (C) Calibration and sensitivity of mCherry fluorescence detection in 384-well plates. Overnight cultures of E. coli MC4100(DE3) cells were diluted to A500 = 0.25, 0.2, 0.15, 0.10 and 0.05, and aliquoted into 384-well plates. The spTorA-mCherry-SsrA and TatABC proteins were induced together or neither were induced, as indicated. The cells were incubated at 25°C for 8 hours, and stored overnight at 4°C. Optical densities (upper panel) and mCherry fluorescence intensities (lower panel) were determined with a BMG Polarstar Omega plate reader (at 500 nm for absorbance; EX = 584 nm, EM = 620 nm for fluorescence). For comparison, the absorbance and fluorescence intensities from purified spTorA-mCherry-H6 (30, 25, 20, 15, 10 and 5 nM) are also shown (n = 3 plates, 16 wells/plate). (D) Simulated hits on 384-well plates. Using the approach described in (C), cells (A500 = 0.15) were grown on plates under the indicated conditions, and then fluorescence intensities were measured. spTorA-mCherry-SsrA was used for conditions II-IV. spTorA-mCherry-H6 was used for a minus SsrA control (I; 100%). The SsrA tag decreased the mCherry fluorescence intensity (II; 63±14%), consistent with a decrease in cytoplasmic mCherry concentration due to SsrA-dependent degradation.
The plates containing cells and dispersed test compounds were grown with shaking (200 rpm) at 25°C for 8 h. Plates were individually mounted, not stacked, on a hollow plastic platform, allowing adequate air circulation. Following the 8 h incubation, plates were transferred to 4°C for 16 h. Each plate was covered with an empty plate to prevent condensation on the lid. […] Following the incubation, plates were read using a BMG Polarstar Omega plate reader (BMG Labtech, Ortenberg, Germany) to determine optical densities (A500) and mCherry fluorescence intensities (EX = 584 nm, EM = 620 nm).
Supplementary file pone.0149659.s005.tiff: S5 Fig Effect of P. aeruginosa Tat Inhibitors on E. coli Cell Growth and Tat Transport. The concentration-dependent effects of Bay 11–7082 (A) and N-phenylmaleimide (B) on bacterial growth (black) and in vivo Tat transport of spTorA-mCherry-SsrA (red) was determined under Tat^++ conditions (top). An overnight culture of MC4100(DE3) (pTorA-mCherry-SsrA, pTatABC-Duet1) was diluted 1:50 in 10 mL fresh LB broth with appropriate antibiotics and dispensed (2 mL) into 5 tubes, and growth was continued at 37°C with shaking at 200 rpm until A500 ≈ 0.5. The indicated concentrations of the two compounds were added, and the expression of spTorA-mCherry-SsrA and TatABC were induced. Cultures were grown for another 8 h at 25°C. Cell growth was assayed by A500, and cells (1 mL, A500 = 1.0) were fractionated into cytoplasmic (C) and periplasmic (P) fractions as described. Transport of spTorA-mCherry-SsrA was assayed by in-gel fluorescence of mCherry (upper gels) and Western blot analyses (middle gels). […]

SMILES | effect on E. coli growth
O=C1C=CC(=O)N1c1ccccc1 [N-phenylmaleimide] | inhibited E. coli growth
Cc1ccc(S(=O)(=O)/C=C/C#N)cc1 [Bay 11–7082] | inhibited E. coli growth
